Laboratory results from patent US8742203B2, “Chemically Inducible Expression of Biosynthetic Pathways” (Metabolix, Inc., priority 2005, dated 2014).

Test system: 1I Arabidopsis plants
Experiment: PHB yield in 1I plants, foliar applications of tebufenozide
Format: in vivo, Arabidopsis thaliana
Description: The genes required for the complete PHB production pathway, a β-ketothiolase (thiolase), an NADPH-acetoacetyl-CoA reductase (reductase) and a PHA synthase (synthase), were individually placed under the control of the minimal ^35S ecdysone-inducible promoter, fused to a plastid targeting signal, and cloned into a pCAMBIA (Centre for Application of Molecular Biology to International Agriculture, Canberra, Australia) based multigene plasmid containing the chimeric ecdysone receptor (A. Martinez, C. Sparks, C. A. Hart, J. Thompson, I. Jepson, Plant J. 19: 97 (1999)). This three-gene inducible construct is designated 3I. The single-gene inducible construct designated 1I contained the thiolase gene under the control of the inducible promoter, but unlike the 3I construct, it expressed the reductase and synthase genes under the control of the constitutive 35S-C4PPDK promoter (W. Chiu et al. Curr. Biol. 6: 325 (1996)).
Further analysis of the 1I construct by screening an additional 235 T1 1I plants identified plants capable of producing 2.5% and 2.6% dwt PHB respectively, in the presence and absence of foliar applications of the inducing agent tebufenozide. The ability of this construct to promote PHB production in a non-inducible fashion was confirmed through analysis of 72 T2 offspring of the best T1 1I plant. […]

## CCc1ccc(C(=O)NN(C(=O)c2cc(C)cc(C)c2)C(C)(C)C)cc1 [tebufenozide]
Additional 235 T1 1I plants screened, in the presence of foliar tebufenozide
  PHB produced by best plants: 2.5 % dwt
Treated T2 1I offspring of best T1 1I plant, in the presence of inducing agent
  Average PHB accumulated: 4.2±2.5 % dwt
